In the supplement of paper PMC10307832:

Key:
Test in all cases: relative viability (nuclei count vs DMSO), 5 days (fraction); higher = more cells survive
VE-821 + OSI-027 = compound: CS(=O)(=O)c1ccc(-c2cnc(N)c(C(=O)Nc3ccccc3)n2)cc1 [VE-821] + COc1cccc2cc(-c3nc([C@H]4CC[C@H](C(=O)O)CC4)n4ncnc(N)c34)[nH]c12 [OSI-027] (partner 0.5 µM)
How it was run: (§1)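 Each reported value is a median over duplicate plates. It expresses relative viability: treated-well nuclei count divided by vehicle-well nuclei count. Lung cancer cell lines in 1536-well plates were dosed by pin tool a day after seeding, alone with one drug or with a fixed anchor-drug dose plus five library-drug doses (not always all listed) in √10 steps, and nuclei were counted after 5 days.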

VE-821 + Decitabine = compound: CS(=O)(=O)c1ccc(-c2cnc(N)c(C(=O)Nc3ccccc3)n2)cc1 [VE-821] + Nc1ncn([C@H]2C[C@H](O)[C@@H](CO)O2)c(=O)n1 [Decitabine] (partner 2 µM)
How it was run: as §1

Vismodegib + Navitoclax = compound: CS(=O)(=O)c1ccc(C(=O)Nc2ccc(Cl)c(-c3ccccn3)c2)c(Cl)c1 [Vismodegib] + CC1(C)CCC(c2ccc(Cl)cc2)=C(CN2CCN(c3ccc(C(=O)NS(=O)(=O)c4ccc(N[C@H](CCN5CCOCC5)CSc5ccccc5)c(S(=O)(=O)C(F)(F)F)c4)cc3)CC2)C1 [Navitoclax] (partner 0.5 µM)
How it was run: as §1

Vismodegib + AZD7762 = compound: CS(=O)(=O)c1ccc(C(=O)Nc2ccc(Cl)c(-c3ccccn3)c2)c(Cl)c1 [Vismodegib] + NC(=O)Nc1cc(-c2cccc(F)c2)sc1C(=O)N[C@H]1CCCNC1 [AZD7762] (partner 0.2 µM)
How it was run: as §1

Cell Line	relative viability (VE-821 + OSI-027; first compound 0.08 µM)	relative viability (VE-821 + OSI-027; first compound 0.253 µM)	relative viability (VE-821 + OSI-027; first compound 0.8 µM)	relative viability (VE-821 + OSI-027; first compound 2.53 µM)	relative viability (VE-821 + OSI-027; first compound 8 µM)	relative viability (VE-821 + Decitabine; first compound 0.08 µM)	relative viability (VE-821 + Decitabine; first compound 0.253 µM)	relative viability (VE-821 + Decitabine; first compound 0.8 µM)	relative viability (VE-821 + Decitabine; first compound 2.53 µM)	relative viability (VE-821 + Decitabine; first compound 8 µM)	relative viability (Vismodegib + Navitoclax; first compound 0.08 µM)	relative viability (Vismodegib + Navitoclax; first compound 0.253 µM)	relative viability (Vismodegib + Navitoclax; first compound 0.8 µM)	relative viability (Vismodegib + Navitoclax; first compound 2.53 µM)	relative viability (Vismodegib + Navitoclax; first compound 8 µM)	relative viability (Vismodegib + AZD7762; first compound 0.08 µM)	relative viability (Vismodegib + AZD7762; first compound 0.253 µM)	relative viability (Vismodegib + AZD7762; first compound 0.8 µM)	relative viability (Vismodegib + AZD7762; first compound 2.53 µM)	relative viability (Vismodegib + AZD7762; first compound 8 µM)
NCI-H1915	0.701	0.593	0.618	0.684	0.534	0.284	0.262	0.312	0.266	0.318	0.773	0.805	0.747	0.729	0.759	0.724	0.667	0.714	0.716	0.749
SK-MES-1	0.665	0.558	0.53	0.533	0.233	0.373	0.406	0.38	0.361	0.284	1.23	1.22	1.23	1.15	1.17	–	–	–	–	–
NCI-H522	0.718	0.779	0.76	0.65	0.677	0.678	0.67	0.7	0.727	0.638	–	–	–	–	–	1.06	0.875	0.849	0.81	0.857
NCI-H1299	–	–	–	–	–	–	–	–	–	–	1.03	1	1.09	0.935	1.01	–	–	–	–	–
NCI-H661	0.805	0.743	0.783	0.758	0.663	0.61	0.568	0.648	0.628	0.602	–	–	–	–	–	–	–	–	–	–
NCI-H2228	0.636	0.459	0.628	0.695	0.2	–	–	–	–	–	0.838	1.1	0.932	0.741	0.901	–	–	–	–	–
NCI-H358	0.983	0.875	0.727	0.79	0.48	0.22	0.279	0.278	0.278	0.273	–	–	–	–	–	0.529	0.57	0.664	0.477	0.611
EBC-1	–	–	–	–	–	–	–	–	–	–	0.412	0.39	0.436	0.397	0.643	–	–	–	–	–
NCI-H2342	0.648	0.54	0.639	0.584	0.527	0.773	0.754	0.704	0.75	0.682	–	–	–	–	–	0.576	0.479	0.633	0.362	0.416
NCI-H2023	0.392	0.311	0.274	0.274	0.11	0.249	0.259	0.205	0.194	0.13	0.937	1.09	1.08	0.995	0.96	–	–	–	–	–
Calu-6	–	–	–	–	–	–	–	–	–	–	0.712	0.781	0.817	0.877	0.845	–	–	–	–	–
NCI-H1703	–	–	–	–	–	–	–	–	–	–	1.02	1.05	0.986	1.23	1.47	0.139	–	0.134	0.104	0.152
SW 1573	0.549	0.853	0.649	0.823	0.453	0.538	0.458	0.433	0.511	0.416	0.808	0.94	0.886	–	1.04	–	–	–	–	–
NCI-H1563	0.736	0.727	0.713	0.751	0.718	–	–	–	–	–	–	–	–	–	–	–	–	–	–	–
LCLC-103H	0.478	0.478	0.404	0.468	0.365	0.749	0.702	0.778	0.77	0.729	–	–	–	–	–	0.752	0.796	0.735	0.774	0.834
NCI-H1623	0.48	0.489	0.543	0.454	0.379	–	–	–	–	–	–	–	–	–	–	–	–	–	–	–
COR-L 105	0.741	0.551	0.647	0.642	0.695	0.666	0.579	0.58	0.613	0.518	0.733	0.721	1.02	0.777	0.781	–	–	–	–	–
CAL-12T	0.529	0.612	0.489	0.423	0.483	–	–	–	–	–	1.21	0.965	1.33	1.23	1.24	0.643	0.559	0.607	0.577	0.664
NCI-H520	0.257	0.257	0.195	0.278	0.208	0.516	0.526	0.583	0.545	0.379	1.06	1.12	0.941	1.12	1.09	–	–	–	–	–
IA-LM	–	–	–	–	–	–	–	–	–	–	0.912	0.725	0.908	0.82	0.868	–	–	–	–	–
NCI-H650	0.499	0.473	0.57	0.455	0.532	0.311	0.342	0.383	0.436	0.366	–	–	–	–	–	0.958	0.925	0.864	0.953	1.06
SW 900	0.459	0.444	0.527	0.552	0.382	0.471	0.456	0.472	0.469	0.386	–	–	–	–	–	0.474	0.539	0.689	–	0.61
ABC-1	0.53	0.485	0.485	0.475	0.381	1.13	0.974	0.809	0.903	0.989	–	–	–	–	–	0.97	0.851	0.823	0.803	0.839
NCI-H1648	0.291	0.25	0.244	0.246	0.239	0.658	–	0.54	0.498	0.471	–	–	–	–	–	0.811	0.717	0.833	0.693	0.696
SK-LU-1	0.316	0.316	0.312	0.268	0.193	0.684	0.671	0.522	0.612	0.475	0.831	0.695	0.834	0.736	0.936	–	–	–	–	–
A549	–	–	–	–	–	0.319	0.454	0.221	0.318	0.281	1.02	1.13	1.28	1.18	1.23	–	–	–	–	–
NCI-H2009	0.693	0.557	0.598	0.618	0.318	0.381	0.413	0.425	0.413	0.398	1.15	1.12	1.2	1.17	1.17	–	–	–	–	–
